The test has as its system HCV particles released by BHK-21 parental or BHK-WNV1 cells. The test is described as follows: Release of HCV envelope proteins/particles by BHK cells transfected with pHCVp7 after glycosylation or trafficking inhibitors (Western blot). Type of test: cell-based, HCV 1a. The conditions noted are these: for secretion of HCV envelope as well as core proteins: BHK parental and -WNV SG-replicon cells transfected with pHCVp7, 3 mM dnj, 3 mM pag or 0.3 mM alloxan, Western blot; for HCV production and/or secretion: summary in the model of FIG. 13. As for the experimental part: FIG. 2 illustrates factors affecting the release of HCV structural proteins: A) Enhancement by flavivirus, but not alphavirus subgenomic, replicons in BHK-21 cells: BHK-21 parental cells (lane 1) or bearing WNV1 (lane 2), Den2 (lane 3) or Semliki Forest virus SG-replicon (lane 4) were transfected with pHCVp7 (plasmid encoding HCV core to p7). Three days later, clarified culture media were pelleted over 15% sucrose cushion, then pellets were analyzed by Western blot with the following monoclonal antibodies: i) anti-HCV E2: AP33; ii) anti-HCV E1: A4, and iii) anti-HCV core: C1. B) WNV- and HCV-SG rep differentially affect the release of HCV-like particles. (left) BHK-21 cells, parental or bearing WNV1 SG-rep, were transfected with HCVp7, a plasmid encoding HCV core to p7. Three days later, HCV proteins in the lysate and supernatants (SN) were analyzed by Western Blot (WB). (right) HuH-7.5 cells (parental or harboring HCV 1a SG-rep) transfected with the same plasmid, were analyzed by WB. *, the E1/E2 signals were obtained with 60 ml of culture media instead of 15 ml for BHK parental and -WNV1 cells. C) N-glycosylation but not O-glycosylation is required for the release of HCV particles: BHK cells were transfected with pHCVp7, then treated or not with 3 mM deoxynojirimycin (dnj), 3 mM phenyl acetyl galactosaminide (pag) or 0.3 mM alloxan (all) for 2 days; HCV E1 Envelope released by BHK-21 parental or BHK-WNV1 cells was analyzed by Western blot after incubation with or without endoglycosidase H (endo-H).
FIG. 11 illustrates that secretion of HCV particles involves maturation of HCV glycoproteins in Golgi apparatus: A) Twelve hours after transfection of BHK-WNV1 cells with pHCVp7, cells were treated with 20 μM brefeldin-A (BFA) for 24 hours and the amounts of HCV E1 and E2 proteins in cell lysates and released particles were analyzed by WB; Hsp70=control. B) BHK and BHK-WNV1 cells were transfected with pHCVp7. Three days later, cells and particles in SN were harvested and treated with endo-H, followed by WB analysis. *, 30 ml culture media was used for parental BHK cells (15 ml for BHK-WNV1 cells).
To test the sensitivity of HCV glycoproteins produced in BHK-21 cells to endo-beta-N-acetyl-glucosaminidase H (endoglycosidase H/endo-H; New England Biolabs), cells were transfected with pHCVp7 plasmid. Three days later, supernatant was harvested as above; cell lysate and supernatant were then incubated in the presence of endo-H according to the manufacturer's protocols. For deoxyrijinomycin (DNJ) and brefeldin A (BFA) treatment, cells were transfected with pHCVp7 and, 12 hr later, the medium was replaced with DMEM containing 5 μg/ml BFA (Sigma), or 3 mM DNJ. Cells were grown for another 24 hr and supernatant was harvested.

The structures appear in SMILES notation.

On to `O=C1NC(=O)C(=O)C(=O)N1` [alloxan], for which the “secretion of HCV envelope as well as core proteins” value (shortened to “secretion of HCV envelope as well”) is on record as “marginal effects”.

Regarding `C[C@H]1CCC/C=C/[C@@H]2C[C@H](O)C[C@H]2[C@H](O)/C=C/C(=O)O1` [BFA, brefeldin A], under “BHK-WNV1 cells, 20 μM BFA for 24 hours”, the HCV secretion entry was “abrogated”. Further, where the note is “BHK-WNV1 cells, BFA”, the “electrophoretic mobility of intracellular HCV envelope proteins” value is listed as “enhanced”. For the same compound, the “HCV production and/or secretion” value (BHK-WNV1 cells) is on record as “blocked”.

Take `OC[C@H]1NC[C@H](O)[C@@H](O)[C@@H]1O` [DNJ, deoxynojirimycin]: the “secretion of HCV envelope as well” value is recorded as “strongly inhibited”. Further, the “HCV production and/or secretion” value (BHK-WNV1 cells) is “blocked”. For the same compound, the “release of HCV particles” value (parental BHK-21 and BHK-WNV1 cells, 3 mM DNJ) is on record as “decreased”.

In the case of `CC(=O)N[C@H]1[C@@H](Oc2ccccc2)O[C@H](CO)[C@H](O)[C@@H]1O` [phenyl acetyl galactosaminide], the “secretion of HCV envelope as well” value is reported as “marginal effects”.

Source of the values: US9052321B2, “Flavivirus-based system for production of hepatitis C virus (HCV)” (priority 2008, dated 2015).
